{"source": "paper PMC11333937", "about": "(Science translational medicine, 2024)", "key": {"[1]": {"system": "primary human airway epithelial (HAE) cells"}, "[2]": {"system": "SARS-CoV-2 WA/1", "experiment": "microbe, parasite or virus in culture", "type": "cell-based", "details": "Severe acute respiratory syndrome coronavirus 2, read-out: EC50, inhibition of SARS-CoV-2 replication"}, "[3]": {"details": "not told; cited from earlier work"}, "[4]": {"system": "SARS-CoV-2 Omicron BA.1", "type": "cell-based"}, "[5]": {"system": "bat-CoV RsSHC014", "type": "cell-based"}, "[6]": {"system": "SARS-CoV Urbani", "type": "cell-based", "details": "HAE, two donors, 10, 1, 0.1 μM, MOI 0.5, 72 hpi"}, "[7]": {"system": "SARS-CoV-2 WA/1", "type": "cell-based"}, "[8]": {"system": "MERS-CoV", "type": "cell-based", "details": "HAE, two donors, 10, 1, 0.1 μM, MOI 0.5, 72 hpi"}, "[9]": {"system": "LLC-MK2-TMPRSS2 cells"}, "[10]": {"system": "SARS-CoV-2 Omicron (B.1.1.529/BA.1)", "details": "mouse, in vivo"}, "[11]": {"system": "SARS-like bat-CoV RsSHC014", "type": "in vivo, mouse"}, "[12]": {"system": "A549-hACE2 cells"}, "[13]": {"experiment": "Mouse GS-5245 pharmacokinetic study", "details": "30 mg/kg GS-5245 oral, timepoints over 24 hr, three mouse strains"}, "[14]": {"details": "direct oral dosing of GS-441524, non-human primates; cited from earlier work"}}, "note": "pEC50: −log10 of the molar value. Where two headings read alike, the source gives them in different places.", "data": [{"molecule": "CC(C)C(=O)OC[C@H]1O[C@@](C#N)(c2ccc3c(N)ncnn23)[C@H](O)[C@@H]1O", "note": "[GS-5245]", "values": [{"measurement": "cytotoxicity in HAE", "setting": "[1]", "result": "without measurable cytotoxicity"}, {"measurement": "pEC50", "setting": "[2]", "result": 6.13}, {"measurement": "cellular permeability", "setting": "[3]", "result": "increased cellular permeability over GS-441524"}, {"measurement": "infectious virus production (PFU in apical washes)", "setting": "[4]", "result": "dose-dependent reduction in infectious virus production"}, {"measurement": "infectious virus production (PFU in apical washes)", "setting": "[5]", "result": "dose-dependent reduction in infectious virus production"}, {"measurement": "infectious virus production (PFU in apical washes)", "setting": "[6]", "result": "dose-dependent reduction in infectious virus production"}, {"measurement": "infectious virus production (PFU in apical washes)", "setting": "[7]", "result": "dose-dependent reduction in infectious virus production"}, {"measurement": "infectious virus production (PFU in apical washes)", "setting": "[8]", "result": "dose-dependent reduction in infectious virus production"}, {"measurement": "cytotoxicity", "setting": "[9]", "result": "without cytotoxicity"}, {"measurement": "ATS ALI and DAD scores", "setting": "[10]", "result": "Unlike ATS ALI scores (Fig. 6D), DAD scores were different"}, {"measurement": "lung viral titers relative to vehicle", "setting": "[10]", "result": "lower lung viral titers"}, {"measurement": "macroscopic lung pathology", "setting": "[10]", "result": "less macroscopic lung pathology"}, {"measurement": "viral titers and gross lung pathology", "setting": "[11]; 10 mg/kg BID, 12 or 24 hpi, 4 dpi", "result": "did not exhibit reduced viral titers"}, {"measurement": "body weight compared to vehicle-treated mice", "setting": "[11]; 30 mg/kg BID initiated at 12 hpi", "result": "increased weight"}, {"measurement": "virus lung titers and gross lung pathology", "setting": "[11]; 30 mg/kg BID, irrespective of initiation time (12 or 24 hpi), 4 dpi", "result": "reduced virus lung titers and gross lung pathology"}, {"measurement": "acute lung injury scores (ATS and DAD)", "setting": "[11]; 30 mg/kg initiated 24 hpi, 4 dpi", "result": "reductions in DAD scores only"}, {"measurement": "acute lung injury scores (ATS and DAD)", "setting": "[11]; 30 mg/kg initiated at 12 hpi, 4 dpi", "result": "reduced acute lung injury scores with both scoring tools"}, {"measurement": "cytotoxicity", "setting": "[12]", "result": "without cytotoxicity"}, {"measurement": "intact GS-5245 prodrug in plasma", "setting": "[13]", "result": "No intact GS-5245 prodrug was observed at any timepoint sampled"}]}, {"molecule": "N#C[C@@]1(c2ccc3c(N)ncnn23)O[C@H](CO)[C@@H](O)[C@H]1O", "note": "[GS-441524]", "values": [{"measurement": "pEC50", "setting": "[2]", "result": 5.34}, {"measurement": "oral bioavailability", "setting": "[14]", "result": "low bioavailability"}, {"measurement": "cytotoxicity", "setting": "[9]", "result": "without cytotoxicity"}]}, {"molecule": "CC(C)(C)[C@H](NC(=O)C(F)(F)F)C(=O)N1C[C@H]2[C@@H]([C@H]1C(=O)N[C@H](C#N)C[C@@H]1CCNC1=O)C2(C)C", "note": "[nirmatrelvir]", "values": [{"measurement": "pEC50", "setting": "[2]", "result": 7.15}]}, {"molecule": "CCC(CC)COC(=O)[C@H](C)N[P@](=O)(OC[C@H]1O[C@@](C#N)(c2ccc3c(N)ncnn23)[C@H](O)[C@@H]1O)Oc1ccccc1", "note": "[remdesivir]", "values": [{"measurement": "pEC50", "setting": "[2]", "result": 6.72}, {"measurement": "cytotoxicity", "setting": "[9]", "result": "without cytotoxicity"}]}]}
